From PMC8630693 (2021)

Experiments:
[1] = test system: BCL-2 RT template (RNA, G4) UAAUACGACUCACUAUAGGGCAUGCCAAGGGGGAAACACCAGAAUCAAGUGUUCCGCGUGAUUGAAGACACCCCCUCGUCCAAGAAUGCAAAGCACAUCCAGGGGGCCGUGGGGUGGGAGCUGGGGAUAAAAUAGCUGGAUUAUAACUCCUCUUCUUUCUCUCGAGAGGUGCCGUUGGCCCCCGUUGCUUUUCCUCUGGGAAGGAUG; assay: reverse transcriptase stop assay, qPCR; details: MgCl2 (concentration not stated), 10 µM compound, 100 nM template, 37°C
[2] = test system: mut 1 (RNA, G4) GGAUGAGUGGGAGGAGG; assay: SPR; details: 100 mM KCl; 10 mM HEPES pH 7.4, 25°C; printed kd/ka gives 3.9e-3
[3] = test system: mut 2 (RNA, G4) UGAGGAGGGUGAGGAGG; assay: SPR; details: 100 mM KCl; 10 mM HEPES pH 7.4, 25°C; printed kd/ka gives 1.01e-2
[4] = test system: mut 3 (RNA, G4) GGAGGAGGGUGAGUAGG; assay: SPR; details: 100 mM KCl; 10 mM HEPES pH 7.4, 25°C; highest OMT 200 µM
[5] = test system: mut 4 (RNA, G4) UGAGGAGGGGGAGGAUG; assay: SPR; details: 100 mM KCl; 10 mM HEPES pH 7.4, 25°C; highest OMT 200 µM
[6] = test system: BCL-2 RNA G-quadruplex (SPR) (RNA, G4) GGGGGCCGUGGGGUGGGAGCUGGGG; assay: SPR; details: 100 mM KCl; 10 mM HEPES pH 7.4, 25°C; highest OMT 200 µM
[7] = test system: NRAS RNA G-quadruplex (SPR) (RNA, G4) UGUGGGAGGGGCGGGUCUGGG; assay: SPR; details: 100 mM KCl; 10 mM HEPES pH 7.4, 25°C; highest OMT 200 µM
[8] = test system: RNA G-quadruplex (VEGF), unlabelled (RNA, G4) GGAGGAGGGGGAGGAGG; assay: ESI-MS; details: 100 mM trimethylammonium acetate; 50% methanol; 10 µM RNA, 30 µM OMT
[9] = test system: RNA G-quadruplex (VEGF), unlabelled (RNA, G4) GGAGGAGGGGGAGGAGG; assay: CD melting; details: 100 mM KCl/NaCl (so in the source); 10 mM Tris pH 7.4; 3:1 OMT/G-quadruplex; 10 µM RNA; Tm 72.7 to 76.3
[10] = test system: DNA double strand (DNA, duplex) GCGCGCGCGCGCGCGCGCGCGCGC; assay: UV melting; details: 100 mM KCl/NaCl (so in the source); 10 mM Tris pH 7.4

`C[n+]1ccc(-c2c3nc(c(-c4cc[n+](C)cc4)c4ccc([nH]4)c(-c4cc[n+](C)cc4)c4nc(c(-c5cc[n+](C)cc5)c5ccc2[nH]5)C=C4)C=C3)cc1` was tested, and the ΔCt ([1]; not a binding constant) was > 2.
For `O=C1CCC[C@@H]2[C@H]3CCC[N+]4([O-])CCC[C@@H](CN12)[C@@H]34` (some centres unmarked), the KD [2] was 39 µM, the KD [3] was 101 µM and the binding [4] was “no”. The binding [5] was “no”, the binding [6] was “no” and the binding [7] was “no”. For the same compound, the binding [8] was “yes”, the ΔTm [9] was 3.6 °C and the binding [10] was “no”. For the same compound, the binding [1] was “no”.
